The target of assay [1] is Serotonin 3 (5-HT3) receptor (Rattus norvegicus) (UniProt P35563+Q9JJ16). In words: Agonistic activity of compound towards 5-hydroxytryptamine 3 receptor in Von Bezold-Jarisch Reflex in rats at 60 (ug/kg), evaluated as change in heart rate. Type of assay: functional.
Assay [2] concerns the target T1, Serotonin 3 (5-HT3) receptor (Rattus norvegicus, UniProt P35563+Q9JJ16).
T1 sequence (P35563 whole entry): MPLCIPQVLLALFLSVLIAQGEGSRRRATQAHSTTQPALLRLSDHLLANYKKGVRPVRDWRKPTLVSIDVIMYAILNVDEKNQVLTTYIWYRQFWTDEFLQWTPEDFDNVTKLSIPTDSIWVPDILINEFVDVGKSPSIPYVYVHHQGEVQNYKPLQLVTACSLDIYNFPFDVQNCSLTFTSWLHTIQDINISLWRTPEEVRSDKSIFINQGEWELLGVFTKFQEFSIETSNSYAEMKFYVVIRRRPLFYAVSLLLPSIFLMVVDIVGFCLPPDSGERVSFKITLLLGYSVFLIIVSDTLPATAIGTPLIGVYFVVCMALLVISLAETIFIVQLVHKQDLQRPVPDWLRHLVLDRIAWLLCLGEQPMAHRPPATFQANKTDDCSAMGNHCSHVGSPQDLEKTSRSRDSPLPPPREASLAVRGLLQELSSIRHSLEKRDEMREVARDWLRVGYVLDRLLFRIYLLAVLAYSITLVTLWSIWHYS
T1 sequence (Q9JJ16 whole entry): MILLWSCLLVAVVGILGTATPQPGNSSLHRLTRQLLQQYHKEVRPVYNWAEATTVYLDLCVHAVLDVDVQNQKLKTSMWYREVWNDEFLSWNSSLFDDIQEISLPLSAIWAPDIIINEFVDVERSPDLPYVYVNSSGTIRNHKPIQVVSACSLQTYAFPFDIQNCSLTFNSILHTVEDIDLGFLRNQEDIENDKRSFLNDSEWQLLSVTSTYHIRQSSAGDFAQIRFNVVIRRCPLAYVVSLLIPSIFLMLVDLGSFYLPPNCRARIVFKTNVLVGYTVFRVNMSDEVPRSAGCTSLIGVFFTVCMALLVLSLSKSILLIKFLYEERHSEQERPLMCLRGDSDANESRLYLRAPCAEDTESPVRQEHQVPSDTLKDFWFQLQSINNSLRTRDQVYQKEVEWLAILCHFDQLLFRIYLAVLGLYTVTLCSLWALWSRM
In words: Binding affinity towards 5-hydroxytryptamine 3 receptor. Type of assay: protein-complex assay.

Assay [3] addresses Adrenergic receptor alpha-2 (Homo sapiens) (UniProt P08913+P18825+P18089). Briefly: Inhibitory activity against Alpha-2 adrenergic receptor using [3H]RX-821002 at 10e-5 (M). The format is protein assay.
Assay [4] concerns the target Beta-1 adrenergic receptor (Homo sapiens) (UniProt P08588). Briefly: Inhibitory activity against Beta-1 adrenergic receptor using [3H]CGP-12177 at 10e-5 (M).
Assay [5] deals with Gastrin/cholecystokinin type B receptor (Homo sapiens) (UniProt P32239). Briefly: Inhibitory activity against Cholecystokinin type B receptor using [3H]CCK-8 at […] (M).
Assay [6] concerns the target GABA-A receptor; anion channel (Homo sapiens) (UniProt P14867+P47870+P18507+P28472+P48169+Q99928+Q9UN88+P34903+O00591+O14764+Q8N1C3+P18505+P78334+P47869+P31644+Q16445). Briefly: Inhibitory activity against Gamma-aminobutyric acid A (GABA-A) receptor using [3H]-muscimol at 10e-5 M. The format is protein-complex assay.
Assay [7] concerns the target Interleukin-1 receptor type 1 (Homo sapiens) (UniProt P14778). In words: Inhibitory activity against Interleukin 1d using [3H]IL-1-alpha at […] (M).
Assay [8] deals with Glutamate receptor ionotropic kainate (Homo sapiens) (UniProt P39086+Q16478+Q16099+Q13002+Q13003). In words: Inhibitory activity against Ionotropic glutamate receptor kainate using [3H]- Kainate at […] (M). Type of assay: protein-complex assay.
Assay [9] concerns NG108-15. Briefly: In vitro effective concentration against [14C]guanidinium uptake into NG 108-15 cells. Type of assay: functional, cell-based. Conditions: Murinae.
The target in assay [10] is Muscarinic acetylcholine receptor M3 (Homo sapiens) (UniProt P20309). In words: Inhibitory activity against Muscarinic acetylcholine receptor M3 using [3H]NMS at […] (M).
For assay [11], the target named is Kappa-type opioid receptor (Homo sapiens) (UniProt P41145). In words: Inhibitory activity against Opioid receptor kappa 1 using [3H]U-69593 at 10e-5 (M).
The target of assay [12] is Mu-type opioid receptor (Homo sapiens) (UniProt P35372). In words: Inhibitory activity against Opioid receptor mu 1 using [3H]DAMGO at 10e-5 (M).
Assay [13] concerns the target Platelet-activating factor receptor (Homo sapiens) (UniProt P25105). Briefly: Inhibitory activity against Platelet activating factor receptor using [3H]PAF at […] (M).
For assay [14], the target named is T2, Glutamate [NMDA] receptor (Homo sapiens) (UniProt Q05586+Q12879+Q13224+O15399+O60391+Q14957+Q8TCU5). In words: Inhibitory activity against Phencyclidine receptor using [3H]-TCP at […] (M). The format is protein-complex assay.
The nature of assay [15]: Inhibition of [3H]batrachotoxin binding to sodium channel at 10e-7 M.
The target of assay [16] is Tumor necrosis factor receptor superfamily member 1A (Homo sapiens) (UniProt P19438). Briefly: Inhibitory activity against TNF using [125]TNF at 10e-5 (M).
A short description of assay [17]: Inhibitory activity against VIP using [125]VIP at 10e-5 (M).
The target in assay [18] is T2, Glutamate [NMDA] receptor (Homo sapiens). Briefly: Inhibitory activity against NMDA using [3H]CGS-19,755 at […] (M). The format is protein-complex assay.
Assay [19] concerns the target 5-hydroxytryptamine receptor 2A (Bos taurus, UniProt Q75Z89). In words: Binding affinity towards 5-hydroxytryptamine 2A receptor.
Assay [20] addresses D(2) dopamine receptor (Homo sapiens) (UniProt P14416). In words: In vitro displacement from Dopamine receptor D2. Conditions: concentration not given here.
Assay [21] deals with Leukotriene B4 receptor 1 (Homo sapiens) (UniProt Q15722). Briefly: Inhibitory activity against Leukotriene B4 receptor using [3H]- LTB4 at […] (M).
Assay [22] concerns the target Cholecystokinin receptor type A (Homo sapiens) (UniProt P32238). Briefly: Inhibitory activity against Cholecystokinin type A receptor using [3H]L-364718 at […] (M).

As usually defined, the IC50 is the midpoint of a concentration-inhibition curve. The low end stands for inhibition by little substance, the high end for a need for much substance. Usually inhibition stands for the percentage by which the read-out fell short of the control. A higher inhibition goes with a strong effect. For orientation: EC50 means the midpoint of the concentration-response curve. Read a high EC50 as lower potency in that assay.

Chain of Cholecystokinin receptor type A (Homo sapiens) (P32238 whole entry): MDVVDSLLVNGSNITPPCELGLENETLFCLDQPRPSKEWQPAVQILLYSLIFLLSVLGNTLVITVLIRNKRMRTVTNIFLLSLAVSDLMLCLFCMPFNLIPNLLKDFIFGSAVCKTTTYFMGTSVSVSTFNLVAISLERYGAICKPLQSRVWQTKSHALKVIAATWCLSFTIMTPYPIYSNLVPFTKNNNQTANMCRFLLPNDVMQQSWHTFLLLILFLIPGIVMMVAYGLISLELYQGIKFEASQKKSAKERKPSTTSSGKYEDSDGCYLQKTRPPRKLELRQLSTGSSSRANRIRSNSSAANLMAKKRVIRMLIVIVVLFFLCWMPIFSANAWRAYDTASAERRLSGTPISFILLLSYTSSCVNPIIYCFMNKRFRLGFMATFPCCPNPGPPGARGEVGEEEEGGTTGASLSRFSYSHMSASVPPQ
Chain of Muscarinic acetylcholine receptor M3 (Homo sapiens) (P20309 whole entry, looked up): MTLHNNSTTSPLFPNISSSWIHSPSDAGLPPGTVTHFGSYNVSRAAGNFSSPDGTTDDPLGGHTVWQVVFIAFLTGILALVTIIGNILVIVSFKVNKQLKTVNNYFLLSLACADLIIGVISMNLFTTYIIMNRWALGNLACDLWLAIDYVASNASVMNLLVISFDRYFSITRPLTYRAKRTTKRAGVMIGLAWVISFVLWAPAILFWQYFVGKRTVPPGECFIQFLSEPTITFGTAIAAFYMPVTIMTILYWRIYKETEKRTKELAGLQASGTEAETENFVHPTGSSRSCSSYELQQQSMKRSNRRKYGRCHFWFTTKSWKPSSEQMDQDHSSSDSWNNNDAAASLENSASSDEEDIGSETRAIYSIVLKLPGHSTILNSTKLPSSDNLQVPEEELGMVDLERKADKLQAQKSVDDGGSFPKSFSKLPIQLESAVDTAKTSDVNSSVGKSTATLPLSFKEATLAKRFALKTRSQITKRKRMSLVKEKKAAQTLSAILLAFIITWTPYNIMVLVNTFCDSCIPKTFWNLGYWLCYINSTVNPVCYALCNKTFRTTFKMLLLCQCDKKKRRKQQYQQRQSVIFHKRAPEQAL
Chain of Leukotriene B4 receptor 1 (Homo sapiens) (Q15722 whole entry): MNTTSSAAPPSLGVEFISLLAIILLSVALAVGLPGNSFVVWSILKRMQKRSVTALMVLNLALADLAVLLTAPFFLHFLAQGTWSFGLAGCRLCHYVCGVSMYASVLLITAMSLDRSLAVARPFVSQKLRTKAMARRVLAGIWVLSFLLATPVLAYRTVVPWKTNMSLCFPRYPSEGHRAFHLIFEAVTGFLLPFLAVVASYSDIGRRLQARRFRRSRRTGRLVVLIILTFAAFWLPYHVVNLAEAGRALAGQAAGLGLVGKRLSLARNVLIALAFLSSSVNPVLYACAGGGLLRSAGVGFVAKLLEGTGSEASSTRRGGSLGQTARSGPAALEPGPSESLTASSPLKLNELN
Chain of Beta-1 adrenergic receptor (Homo sapiens) (P08588 whole entry, looked up): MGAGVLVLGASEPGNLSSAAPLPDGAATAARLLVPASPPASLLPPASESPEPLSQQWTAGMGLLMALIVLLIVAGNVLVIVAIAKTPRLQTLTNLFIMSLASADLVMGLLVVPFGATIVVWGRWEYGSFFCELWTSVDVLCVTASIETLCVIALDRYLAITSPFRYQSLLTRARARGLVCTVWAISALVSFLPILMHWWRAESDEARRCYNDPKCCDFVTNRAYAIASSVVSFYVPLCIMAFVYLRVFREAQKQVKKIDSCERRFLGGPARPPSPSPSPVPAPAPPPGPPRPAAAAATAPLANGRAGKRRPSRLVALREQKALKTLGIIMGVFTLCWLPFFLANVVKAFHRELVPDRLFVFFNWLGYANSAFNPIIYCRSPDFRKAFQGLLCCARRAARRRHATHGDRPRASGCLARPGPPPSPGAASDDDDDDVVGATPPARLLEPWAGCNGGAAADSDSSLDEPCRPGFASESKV
Chain of Tumor necrosis factor receptor superfamily member 1A (Homo sapiens) (P19438 whole entry): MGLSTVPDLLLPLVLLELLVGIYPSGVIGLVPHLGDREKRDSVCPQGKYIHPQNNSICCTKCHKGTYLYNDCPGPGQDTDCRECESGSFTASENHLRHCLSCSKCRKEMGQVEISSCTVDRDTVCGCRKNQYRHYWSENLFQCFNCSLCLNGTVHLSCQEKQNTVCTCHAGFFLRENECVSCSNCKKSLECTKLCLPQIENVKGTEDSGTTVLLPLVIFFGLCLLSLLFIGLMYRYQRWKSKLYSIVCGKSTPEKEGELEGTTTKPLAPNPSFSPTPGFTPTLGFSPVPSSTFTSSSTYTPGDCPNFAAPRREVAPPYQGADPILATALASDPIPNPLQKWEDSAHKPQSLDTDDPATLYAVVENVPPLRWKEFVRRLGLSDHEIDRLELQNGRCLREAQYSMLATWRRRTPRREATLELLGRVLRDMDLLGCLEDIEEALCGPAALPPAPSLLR
Chain of Gastrin/cholecystokinin type B receptor (Homo sapiens) (P32239 whole entry): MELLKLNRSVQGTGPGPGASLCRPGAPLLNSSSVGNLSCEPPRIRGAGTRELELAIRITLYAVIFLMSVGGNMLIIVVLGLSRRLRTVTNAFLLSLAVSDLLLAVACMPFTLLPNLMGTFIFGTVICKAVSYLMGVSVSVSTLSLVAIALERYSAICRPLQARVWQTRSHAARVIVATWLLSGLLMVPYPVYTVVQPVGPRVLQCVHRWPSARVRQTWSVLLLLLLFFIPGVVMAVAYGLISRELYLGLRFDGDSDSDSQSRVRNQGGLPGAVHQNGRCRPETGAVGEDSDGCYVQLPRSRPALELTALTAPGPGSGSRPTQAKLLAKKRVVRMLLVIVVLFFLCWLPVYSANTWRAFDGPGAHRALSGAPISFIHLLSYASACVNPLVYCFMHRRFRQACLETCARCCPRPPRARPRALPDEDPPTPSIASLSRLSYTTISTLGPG
Chain of Mu-type opioid receptor (Homo sapiens) (P35372 whole entry): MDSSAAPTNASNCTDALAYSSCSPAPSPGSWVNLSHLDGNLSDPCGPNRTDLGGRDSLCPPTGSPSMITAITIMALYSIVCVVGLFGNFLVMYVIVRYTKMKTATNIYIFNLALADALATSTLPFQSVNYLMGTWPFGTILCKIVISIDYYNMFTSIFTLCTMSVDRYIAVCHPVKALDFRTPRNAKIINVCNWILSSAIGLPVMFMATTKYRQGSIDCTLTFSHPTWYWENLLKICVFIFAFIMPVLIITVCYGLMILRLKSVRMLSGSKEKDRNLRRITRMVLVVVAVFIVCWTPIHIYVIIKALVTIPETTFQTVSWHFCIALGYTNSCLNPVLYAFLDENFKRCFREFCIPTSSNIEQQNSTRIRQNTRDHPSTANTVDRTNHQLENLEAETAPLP
Chain of 5-hydroxytryptamine receptor 2A (Q75Z89 whole entry): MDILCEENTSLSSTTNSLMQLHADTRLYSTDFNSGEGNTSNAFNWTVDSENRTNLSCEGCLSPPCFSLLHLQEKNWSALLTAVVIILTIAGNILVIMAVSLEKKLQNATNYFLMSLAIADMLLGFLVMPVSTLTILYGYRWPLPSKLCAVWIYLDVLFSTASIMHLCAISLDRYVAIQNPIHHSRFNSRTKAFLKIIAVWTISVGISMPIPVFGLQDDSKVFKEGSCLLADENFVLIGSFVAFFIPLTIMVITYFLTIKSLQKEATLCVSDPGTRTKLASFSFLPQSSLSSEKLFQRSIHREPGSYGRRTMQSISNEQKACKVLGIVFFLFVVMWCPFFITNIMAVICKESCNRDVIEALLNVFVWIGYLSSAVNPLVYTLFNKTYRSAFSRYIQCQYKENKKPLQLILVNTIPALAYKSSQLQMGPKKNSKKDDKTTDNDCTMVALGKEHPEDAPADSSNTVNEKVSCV
Chain of Kappa-type opioid receptor (Homo sapiens) (P41145 whole entry): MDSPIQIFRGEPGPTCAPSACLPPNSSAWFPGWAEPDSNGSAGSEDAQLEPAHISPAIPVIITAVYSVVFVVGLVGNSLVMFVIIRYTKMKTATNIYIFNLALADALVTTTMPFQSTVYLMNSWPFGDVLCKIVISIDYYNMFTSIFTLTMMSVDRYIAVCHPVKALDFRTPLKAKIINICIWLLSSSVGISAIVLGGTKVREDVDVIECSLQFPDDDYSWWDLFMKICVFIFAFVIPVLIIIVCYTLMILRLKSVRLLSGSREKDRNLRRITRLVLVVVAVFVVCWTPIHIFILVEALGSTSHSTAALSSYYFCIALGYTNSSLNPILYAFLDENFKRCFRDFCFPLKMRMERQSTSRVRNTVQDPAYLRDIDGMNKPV
Chain of Platelet-activating factor receptor (Homo sapiens) (P25105 whole entry): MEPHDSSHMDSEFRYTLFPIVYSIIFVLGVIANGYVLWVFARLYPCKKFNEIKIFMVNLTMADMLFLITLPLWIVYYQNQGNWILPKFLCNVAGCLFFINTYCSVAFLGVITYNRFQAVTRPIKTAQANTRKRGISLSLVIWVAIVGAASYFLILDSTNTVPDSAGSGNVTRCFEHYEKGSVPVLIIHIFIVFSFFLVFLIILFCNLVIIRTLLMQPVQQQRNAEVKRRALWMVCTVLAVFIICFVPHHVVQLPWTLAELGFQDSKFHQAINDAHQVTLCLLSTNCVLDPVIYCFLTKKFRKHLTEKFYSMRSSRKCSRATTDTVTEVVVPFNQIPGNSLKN
Chain of Interleukin-1 receptor type 1 (Homo sapiens) (P14778 whole entry): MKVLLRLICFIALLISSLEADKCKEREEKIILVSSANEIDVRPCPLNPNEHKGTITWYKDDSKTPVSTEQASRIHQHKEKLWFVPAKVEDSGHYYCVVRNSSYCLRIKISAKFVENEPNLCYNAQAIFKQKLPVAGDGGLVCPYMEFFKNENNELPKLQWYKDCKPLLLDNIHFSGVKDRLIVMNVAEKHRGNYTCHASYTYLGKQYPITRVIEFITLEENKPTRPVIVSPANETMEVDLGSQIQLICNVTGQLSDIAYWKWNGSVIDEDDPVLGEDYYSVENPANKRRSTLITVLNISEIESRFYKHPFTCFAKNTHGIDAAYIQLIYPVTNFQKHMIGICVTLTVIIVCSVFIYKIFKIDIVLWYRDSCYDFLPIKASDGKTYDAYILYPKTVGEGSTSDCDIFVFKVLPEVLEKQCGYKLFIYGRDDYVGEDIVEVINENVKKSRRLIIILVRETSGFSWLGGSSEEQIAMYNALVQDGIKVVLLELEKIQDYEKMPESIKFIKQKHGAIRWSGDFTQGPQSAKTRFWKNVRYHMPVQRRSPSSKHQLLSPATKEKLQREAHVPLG

Regarding `c1ccc(CN2CCN(c3nc4ccsc4n4cccc34)CC2)cc1`, the Change in [1] came out at 0%. The figures for the IC50 in [2] and in assay [19] were 0.00141 µM and 4.37 µM, respectively. Besides, the inhibition in assay [3] is 29%; in assay [4], 21%; in assay [5], 18%; in assay [6], 31%; in assay [7], 1%; in [8] it was 12%. Further, the inhibition in assay [10] stood at 20%; in assay [11], 55%; in assay [12], 29%; in assay [13], 2%; in [14], 10%; in [15], 28%. In addition, the inhibition in assay [16] came out at 7%; in assay [17], 6%; in assay [18] it was 19%; in assay [20] it was 86%; in assay [21] it was 17%; in [22] it was 7%. Moreover, the EC50 in [9] turned out to be 0.01 µM.

(Values after ChEMBL document CHEMBL1129317, “Novel selective and partial agonists of 5-HT3 receptors. Part 1. Synthesis and biological evaluation of piperazinopyrrolothienopyrazines” (J Med Chem, 1996).)
